Values quoted from earlier work as cited in patent publication US9226906B2, “Method and nutritional supplement for enhancing weight gain of a mammal” (Supragenix, LLC, priority 2013, dated 2016).

Molecular target: CB1 (Homo sapiens, UniProt P21554)
Sequence (P21554 whole entry, species assumed): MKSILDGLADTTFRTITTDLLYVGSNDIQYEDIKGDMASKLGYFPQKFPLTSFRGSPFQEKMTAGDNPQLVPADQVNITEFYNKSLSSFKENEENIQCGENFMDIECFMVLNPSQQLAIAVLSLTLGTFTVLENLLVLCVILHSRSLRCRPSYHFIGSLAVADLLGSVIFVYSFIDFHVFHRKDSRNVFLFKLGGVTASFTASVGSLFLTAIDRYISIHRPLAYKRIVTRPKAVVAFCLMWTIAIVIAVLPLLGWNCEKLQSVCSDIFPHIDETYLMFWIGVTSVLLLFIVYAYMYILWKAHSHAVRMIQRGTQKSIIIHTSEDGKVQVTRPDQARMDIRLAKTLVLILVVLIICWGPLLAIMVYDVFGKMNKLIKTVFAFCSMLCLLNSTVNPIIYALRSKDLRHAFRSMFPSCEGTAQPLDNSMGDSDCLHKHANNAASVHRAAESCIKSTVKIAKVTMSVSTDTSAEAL

Molecule	activating CB1
CCCCCCC/C=C/C=C/C(=O)NCC(C)C [Dodeca-2E,4E-dienoic acid isobutylamide]	effective in activating CB1
CC#CC#CCC/C=C\C=C\C(=O)NCC(C)C [Dodeca-2E,4Z-diene-8,10-diynoic acid isobutylamide]	effective in activating CB1
CC#CC#CCCCC/C=C/C(=O)NCC(C)CC (centres unmarked) [Dodeca-2E-ene-8,10-diynoic acid 2-methylbutylamide]	effective in activating CB1
CCC/C=C\CC/C=C/C=C/C(=O)NCC(C)C [Dodeca-2E,4E,8Z-trienoic acid isobutylamide]	effective in activating CB1
C#CC#CC/C=C\CCCCC/C=C/C(=O)NCC(C)C [Pentadeca-2E,9Z-diene-12,14-diynoic acid isobutylamide]	effective in activating CB1
C#CC#CCCCCC=CC(=O)NCC(C)C [Undeca-2-ene-8,10-diynoic acid isobutylamide]	effective in activating CB1
C#CC#CCC/C=C/C=C\C(=O)NCC(C)C [Undeca-2Z,4E-diene-8,10-diynoic acid isobutylamide]	effective in activating CB1
Dodeca-2E,4E,8Z,10E/Z-tetraenoic acid isobutylamides	effective in activating CB1
